According to patent US9790198B2, “Substituted benzothiophenyl derivatives as GPR40 agonists for the treatment of type II diabetes” (Janssen Pharmaceutica NV, priority 2014, dated 2017):

Biological target: human GPR40 (Homo sapiens (Human), UniProt O14842)
Experiment: GPR40 Calcium Flux Assay
Type: cell-based
Conditions: transfected HEK293 cells stably expressing human GPR40, mean data, read-out: hGPR40 Ca^2+ Assay EC50
Protocol: Compounds were tested in a calcium flux assay using transfected HEK293 cells stably expressing either human GPR40 or rat GPR40. Human GPR40 expressing cells were cultured in DMEM-High Glucose media supplemented with 10% fetal bovine serum, 1×L-Glutamine, 1× Penicillin/Streptomycin and 500 μg/mL G418. Rat GPR40 expressing cells were cultured in DMEM-High Glucose media supplemented with 10% fetal bovine serum and 1 μg/mL puromycin. Cells were plated into poly-D-lysine coated 384-well plates and cultured overnight in a 37° C. humidified tissue culture incubator under 5% CO2/90% O2 atmosphere. On the day of the experiment, the culture media was replaced with assay buffer (HBSS, 20 mM HEPES, 0.1% BSA) and the cells incubated at 37° C. for 1 h. Calcium-sensitive fluorescent dye (Fluo 8 No-Wash Calcium Dye, ABD Bioquest) was then added and the cells incubated for another 30 min at 37° C. followed by 15 min at room temperature while protected from the light. The cell plate and a plate of diluted compounds of Formula (I) were loaded into a fluorescent plate reader that added compounds onto the cells while measuring the fluorescence intensity of each well. The plate reader recorded fluorescence intensity at 1 second intervals for 8 min and provided the data for analysis in an Excel format. EC50 values were calculated using Prism (GraphPad) software.

Sequence of human GPR40 (O14842 whole entry): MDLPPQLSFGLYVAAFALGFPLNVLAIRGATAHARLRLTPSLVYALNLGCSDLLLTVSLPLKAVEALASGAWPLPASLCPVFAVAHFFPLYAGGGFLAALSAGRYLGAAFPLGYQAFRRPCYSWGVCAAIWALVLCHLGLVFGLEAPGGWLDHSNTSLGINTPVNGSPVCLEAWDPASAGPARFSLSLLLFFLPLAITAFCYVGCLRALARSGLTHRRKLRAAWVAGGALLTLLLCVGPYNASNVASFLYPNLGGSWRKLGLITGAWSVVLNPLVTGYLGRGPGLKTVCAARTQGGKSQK

EC50: 14 nM
Compound: Cc1ccccc1-c1csc2ccc(COc3ccc([C@]4(CC(=O)O)C[C@@H](O)C4)cc3)cc12 [Cpd 31, 2-((1r,3r)-3-Hydroxy-1-(4-((3-(2-methylphenyl)benzo[b]thiophen-5-yl)methoxy)phenyl)cyclobutyl)acetic acid]
